Source: article PMC5323433 (The pharmacogenomics journal, 2016)

Assays:
[1] = cited from earlier work
[2] = Steady-state plasma exemestane concentration two hours after dosing; format: in vivo, human; conditions: for Relative % change per variant allele (95% CI): additive model
breast cancer = conditions: letrozole compared to placebo in 352 minority patients, p=0.53; cited from earlier work
[3] = CYP3A4*22 rs35599367, oral 25 mg/day, 2 h post-dose

In the case of C=C1C[C@@H]2[C@H](CC[C@]3(C)C(=O)CC[C@@H]23)[C@@]2(C)C=CC(=O)C=C12 [exemestane], the “Greater exemestane exposure in patients with hepatic impairment” value ([1]; hepatic impairment based on Child-Pugh grade) is given as 2–3 fold, the “Greater exemestane exposure in patients with renal impairment” value ([1]; renal impairment) is given as 2–3 fold and the “Median Exemestane Concentration” value ([2]; 1st Tertile (CrCl > 108.5 mL/min), 2 h post-dose) is given as 5.9 ng/mL. The “Relative % Change Compared with Reference (95% Confidence Interval)” value ([2]; 2nd CrCl tertile vs 1st tertile (reference)) was “+42.9% (8.3%–88.5%)”, the “Median Exemestane Concentration” value ([2]; 2nd Tertile (83.0 < CrCl ≤ 108.5), 2 h post-dose) was 8.6 ng/mL and the “Relative % Change Compared with Reference (95% Confidence Interval)” value ([2]; 3rd CrCl tertile vs 1st tertile (reference)) was “+51.1% (14.5%–99.5%)”. For the same compound, the “Median Exemestane Concentration” value ([2]; 3rd Tertile (CrCl ≤ 83.0 mL/min), 2 h post-dose) was 8.0 ng/mL, the “Relative % change per variant allele (95% CI)” value ([2]; AKR1C4 Leu311Val rs17134592) was −8% (−25%, 13%) and the “Relative % change per variant allele (95% CI)” value ([2]; AKR7A2 A142T rs1043657) was −1% (−22%, 26%). The “Relative % Change (95% Confidence Interval)” value ([2]; Age, per year increase) was “+0.8% (−0.4%, 2%)”, the “Relative % Change (95% Confidence Interval)” value ([2]; BMI, per unit increase) was −1.5% (−3%, 0%) and the “Relative % Change Compared with Reference (95% Confidence Interval)” value ([2]; Black vs White (reference)) was −32.2% (−52.1%–−4.0%). For the same compound, the “Relative % change per variant allele (95% CI)” value ([2]; CYP1A1 15:74724835 rs2606345) was 0% (−13%, 15%), the “Relative % change per variant allele (95% CI)” value ([2]; CYP1A1*2 rs4646903) was “+16% (−7%, 46%)” and the “Relative % change per variant allele (95% CI)” value ([2]; CYP1B1 2:38080367 rs162555) was 6% (−11%, 26%). The “Relative % change per variant allele (95% CI)” value ([2]; CYP1B1 Ala119Ser rs1056827) was −1% (−15%, 16%), the “Relative % change per variant allele (95% CI)” value ([2]; CYP1B1 Arg48Gly rs10012) was −4% (−18%, 12%) and the “Relative % change per variant allele (95% CI)” value ([2]; CYP3A4*1G rs2242480) was −4% (−20%, 15%). For the same compound, the “Median Concentration (range), Heterozygous” value [2, 3] was 10.7 (2.8 – 72.0) ng/mL, the “Median Concentration (range), Homozygous Wild-type” value [2, 3] was 7.7 (2.5 – 42.2) ng/mL and the “Relative % change per variant allele (95% CI)” value ([2]; CYP4A11 −845A/G rs9332978) was “+14% (−15%, 51%)”. The “Patients with concentration <LLOQ” value ([2]; LLOQ 2.5 ng/mL, 26 of 246 patients) was 10.6%, the “Median Exemestane Concentration” value ([2]; Sample Collection Time 1 month, 2 h post-dose) was 6.0 ng/mL and the “Median Exemestane Concentration” value ([2]; Sample Collection Time 3 month, 2 h post-dose) was 8.0 ng/mL. For the same compound, the “Relative % Change Compared with Reference (95% Confidence Interval)” value ([2]; elevated aminotransferases Yes vs No (reference)) was “+42.9% (0.6%, 103%)” and the “Decrease in exemestane concentration per unit increase in BMI” value ([2]; per unit increase in BMI) was 1.5%.

In the case of N#Cc1ccc(C(c2ccc(C#N)cc2)n2cncn2)cc1 [letrozole], the “Disease free survival hazard ratio” value (breast cancer) is given as 1.39.
